This note sets out measurements from PubChem BioAssay (NCI).

What all share (assay): growth of human tumour cells (NCI), 48 h
The test system of assay [1] is HCC-2998 colon.
Assay [2] relates to 786-0 renal.
The subject of assay [3] is T-47D breast.
For assay [4], the system named is HCT-15 colon.
Assay [5] concerns COLO 205 colon.
For assay [6], the system named is KM12 colon.
Assay [7] has as its system MCF7 breast.
In assay [8] the test system is EKVX NSCLC.
Assay [9] deals with HOP-62 NSCLC.
Assay [10] concerns NCI-H226 lung.

Values joined by “and” are separate entries in the source; they are usually repeats but may differ in a detail not shown here. Identical values can stand only once.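 The compound was tested at five concentrations on cells cultured in 96-well plates, with a 48-hour exposure period. The concentration for 50% growth inhibition is given as GI50. Definition used: TGI = concentration required for complete inhibition of growth.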

For the molecule `CCCCCCCCCCCCCCCCC(=O)O.CCCCCCCCCCCCCCCCCC(=O)O.CCCCCCCCCCCCCCCCCC(=O)O.CCCCCCCCCCCCCCCCCC(=O)O.CCCCCCCCCCCCCCCCCC(=O)O.CO[CH-]OC12COC1CC(O)C1(C)C(O)C(OC(C)O)C3=C(C)C(OC(=O)C(O)C([NH-])c4ccccc4)CC(O)(C(OC(=O)c4ccccc4)C21)C3(C)C.[Cu+].[Zn].[Zn].[Zn].[Zn].[Zn]` (configuration not stated), the GI50 in assay [1] is 0.00647 µM; in assay [2], 59.5 nM; in assay [3] it was 8.63 nM; in assay [4], 222 nM; in assay [5], 8.44 nM; in assay [6], 6.56 nM. In addition, the GI50 in assay [7] is 2.62 nM; in assay [8], 112 nM; in assay [9], 13.1 nM; in assay [10] it was 0.277 µM. Besides, the TGI was > 10.9 µM in [2]; > 25 µM in [3]; > 25 µM in assay [4]; > 25 µM in [5]; > 25 µM in assay [6]; 3.83 µM in assay [7]. The TGI was 9.22 µM in [8], > 20.4 µM in [9] and 8.05 µM in [10].

As for `O=c1ssc(Cl)c1Cl`, the TGI in [1] was > 10 µM; in assay [2] it was > 7.05 µM; in [3] it was > 10 µM; in assay [4], > 10 µM; in [5] it was 4.32 µM; in assay [6], > 10 µM. Moreover, the TGI in [7], in assay [8], in [9] and in assay [10] was > 10 µM in each case.

As to `O=C1c2ccccc2-c2c1c1ccccc1c(=O)n2CCCNCCCCNCCCN1C(=O)c2ccccc2C2C(=O)c3ccccc3C21` (configuration not stated), the GI50 in assay [1] was 0.194 µM; in [2], 78.6 nM; in [3] it was 643 nM; in assay [4] it was 229 nM; in assay [5] it was 681 nM; in assay [6] it was 270 nM. Further, the GI50 in [7] is 36.1 nM; in assay [8], 358 nM; in assay [9], 273 nM; in [10] it was 0.575 µM. The TGI was determined as 0.908 µM in assay [1]; 0.782 µM in [2]; 1.77 µM in [3]; 0.853 µM in assay [4]; 1.61 µM in assay [5]; 1.41 µM in [6]. In addition, the TGI came to 1.9 µM in assay [7], 1.05 µM in [8], 1.08 µM in assay [9] and 2.19 µM in assay [10].

As for `Clc1ccc(OCc2nnc3n2N=C(c2ccc(Cl)cc2Cl)CS3)cc1`, the GI50 was 16.6 µM in assay [1]; 32700 nM in assay [2]; 38500 nM in [3]; 13900 nM in assay [4]; 26300 nM in assay [5]; 20900 nM in [6]. For the same molecule, the GI50 was 27800 nM in assay [7], 20500 nM in assay [8], 19600 nM in [9] and 17.3 µM in [10]. Moreover, the TGI in [1] is 35 µM; in [2] it was > 100 µM; in assay [3] it was > 100 µM; in [4] it was 37.1 µM; in assay [5], 86.7 µM; in assay [6], 54.4 µM. The TGI in assay [7] worked out at 69.2 µM; in assay [8], 52.9 µM; in [9] it was 41.3 µM; in assay [10], 38.9 µM.

With `COc1ccc(C2C(C)C(=O)C(C)C(c3ccc(OC)cc3)N2N=O)cc1` (configuration not stated), the GI50 in assay [1] was > 1000 µM; in assay [4], > 750000 nM; in assay [5], > 750000 nM; in assay [9], 24800 nM and 23900 nM; in assay [10], > 88.4 µM. Further, the TGI in assay [1] is > 1000 µM; in [2] it was 467 µM; in assay [3], 713 µM; in assay [4], > 1000 µM; in assay [5], > 750 µM; in assay [6], > 1000 µM. For the same molecule, the TGI in [7] was > 1000 µM; in assay [8], > 1000 µM; in assay [9], > 80 µM and 60.7 µM and 293 µM; in [10], > 75 µM and 457 µM.

On to `COc1ccc(-n2ccnc2-c2cc(OC)c(OC)c(OC)c2)cc1`, for which the GI50 was 0.957 µM in assay [1]; 5650 nM in assay [2]; 8480 nM in assay [3]; 1530 nM in assay [4]; 1330 nM in assay [5]; 4590 nM in [6]. In addition, the GI50 in [7] was 1550 nM; in assay [8], 34000 nM; in assay [9], 3590 nM; in assay [10], 24 µM. The TGI in assay [1] was 24.6 µM; in assay [2], > 100 µM; in assay [3], > 100 µM; in assay [4] it was > 100 µM; in assay [5] it was 5.74 µM; in [6], > 100 µM. Moreover, the TGI in assay [7], in assay [8], in assay [9] and in [10] was > 100 µM each time.

Turning to `COc1cc(C(=O)Nc2cc(OC)c3ccn(C)c3c2)cc2c1C[C@]1(C)CC[C@@H](O)C(C)(C)[C@H]1O2`, the GI50 in assay [1] was 3.74 µM; in assay [2], 87.8 nM; in assay [3] it was 1800 nM; in assay [4] it was 1050 nM; in assay [5], 1400 nM; in assay [6], 2080 nM. The GI50 is 612 nM in [7], 1870 nM in assay [8], 770 nM in [9] and 7.69 µM in assay [10]. The TGI was 49.8 µM in assay [1]; 5.22 µM in [2]; 14.8 µM in [3]; > 100 µM in [4]; 6.41 µM in assay [5]; > 100 µM in assay [6]. The TGI in assay [7] was 15.1 µM; in assay [8], > 100 µM; in assay [9], 13.1 µM; in assay [10], > 100 µM.

Regarding `O=C1c2cccc(NCCN=Cc3ccccc3O)c2C(=O)c2c(NCCN=Cc3ccccc3O)cccc21`, the GI50 in [1] is 0.535 µM; in assay [2], 865 nM; in assay [3], 684 nM; in assay [4], 2230 nM; in assay [5], 460 nM; in assay [6], 353 nM. Also, the GI50 in [7] was 279 nM; in assay [8], 1870 nM; in assay [9] it was 663 nM; in assay [10], 0.571 µM. Besides, the TGI turned out to be 1.72 µM in [1]; 3.76 µM in assay [2]; 4.46 µM in assay [3]; 12 µM in assay [4]; 2.18 µM in assay [5]; 1.44 µM in assay [6]. Further, the TGI in assay [7] came out at 1.08 µM; in assay [8], 8.39 µM; in assay [9], 3.89 µM; in [10], 6 µM.

`COc1cc(/C=C/C(=O)N2CCN(C(=O)c3cc(OC)c(OC)c(OC)c3)CC2)ccc1OCCCOc1cc2c(cc1OC)C(=O)N1CCC[C@H]1C=N2`: the GI50 was 0.296 µM in [1]; 491 nM in assay [2]; 150 nM in assay [3]; 3180 nM in assay [4]; 190 nM in assay [5]; 250 nM in assay [6]. Also, the GI50 in [7] was 109 nM; in [8], 794 nM; in [9], 326 nM; in assay [10], 0.286 µM. Moreover, the TGI in [1] is 0.838 µM; in assay [2], 10.6 µM; in [3], 0.495 µM; in [4], 27.7 µM; in assay [5], 0.476 µM; in assay [6], 0.699 µM. The TGI came to 0.636 µM in assay [7], 4.56 µM in assay [8], 0.933 µM in assay [9] and 1.19 µM in assay [10].

Regarding `O=S(=O)(/N=c1/scc(-c2ccccc2)n1-c1ccccc1)c1ccc(N2N=C3c4ccccc4CC3C2c2cccs2)cc1` (configuration not stated), the GI50 in assay [1] is 32.8 µM; in assay [2] it was 64200 nM; in [3] it was > 100000 nM; in [4], 67300 nM; in [5] it was > 100000 nM; in [6] it was 32100 nM. Also, the GI50 in [7] is 29100 nM; in [8], 35500 nM; in assay [9], 73200 nM; in assay [10] it was 78.9 µM. Moreover, the TGI in assay [1] is 81.3 µM; in assay [2], > 100 µM; in assay [3], > 100 µM; in assay [4] it was > 100 µM; in assay [5], > 100 µM; in [6], > 100 µM. In addition, the TGI in assay [7], in [8], in assay [9] and in assay [10] was > 100 µM each time.

Regarding `CCN(CC)C1CCC(Nc2c(C(C)=O)cnc3ccc(-c4ccc(O)c(Cl)c4)cc23)CC1` (configuration not stated), the GI50 in assay [1] is 1.63 µM; in [2], 1640 nM; in [3] it was 1940 nM; in [4], 301 nM; in assay [5], 10700 nM; in assay [6] it was 432 nM. The GI50 was 229 nM in assay [7], 1820 nM in assay [8], 2140 nM in assay [9] and 2.16 µM in assay [10]. In addition, the TGI in [1] is 12.9 µM; in assay [2] it was 44.8 µM; in [3] it was > 100 µM; in assay [4], 9.62 µM; in assay [5] it was 40.7 µM; in assay [6], 4.28 µM. Besides, the TGI was 1.42 µM in assay [7], > 47.2 µM in assay [8], > 45.5 µM in assay [9] and 22.6 µM in [10].

As for `CC(=O)Oc1ccc(/C(=C(\C)c2ccc(Cl)cc2)c2ccc(OCCN3CCCCC3)cc2)cc1`, the GI50 is 1.87 µM in [1]; 1590 nM in assay [2]; 1090 nM in assay [3]; 1610 nM in assay [4]; 1790 nM in assay [5]; 1770 nM in [6]. The values for the GI50 in [8], in [9] and in assay [10] were 2150 nM, 2050 nM and 6.39 µM, respectively. Further, the TGI was found to be 3.68 µM in assay [1]; 3.16 µM in assay [2]; 4.37 µM in assay [3]; 3.19 µM in [4]; 3.5 µM in assay [5]; 3.97 µM in assay [6]. Moreover, the TGI in assay [7] stood at 2.55 µM; in assay [8], 6.32 µM; in assay [9] it was 4.23 µM; in assay [10], 22.9 µM.

With `CCOc1cccc(-c2nc(N)nc(Nc3ccccc3SSc3ccccc3Nc3nc(N)nc(-c4cccc(OCC)c4)n3)n2)c1`, the GI50 in assay [1] was > 100 µM; in [2] it was 5030 nM; in assay [3], 2420 nM; in assay [4] it was 2180 nM; in assay [5], 35800 nM; in [6], 3530 nM. Besides, the GI50 is 4970 nM in assay [7], 3560 nM in assay [8], 1570 nM in assay [9] and 4.5 µM in assay [10]. The TGI in assay [1] was > 100 µM; in assay [2], 69.7 µM; in assay [3], > 100 µM; in assay [4], > 100 µM; in assay [5] it was > 100 µM; in assay [6], > 100 µM. In addition, the TGI is > 100 µM in assay [7], > 100 µM in assay [8], 4.46 µM in assay [9] and > 100 µM in [10].

For the molecule `COc1ccc(/C=C2\C=C(c3ccccc3)N(CCc3ccccc3)C2=O)cc1OC`, the GI50 is 12.9 µM in assay [1]; 2140 nM in assay [2]; 3200 nM in assay [3]; 11100 nM in assay [4]; 17300 nM in assay [5]; 22200 nM in assay [6]. The GI50 was 4180 nM in assay [7], 10400 nM in assay [8], 2720 nM in assay [9] and 4.6 µM in [10]. In addition, the TGI was 64.1 µM in assay [1]; 5.85 µM in assay [2]; 28.1 µM in assay [3]; > 100 µM in assay [4]; > 100 µM in assay [5]; > 100 µM in [6]. The TGI amounted to 57.2 µM in assay [7], 54 µM in assay [8] and 30.2 µM in [10].
